Source: PubChem BioAssay (NCI)
Values joined by “and” are separate entries in the source; they are usually repeats but may differ in a detail not shown here. Equal entries are not always repeated.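 Five concentrations, 48 hours, 96-well plates. The concentration for 50% growth inhibition is given as GI50. TGI denotes the concentration required for complete inhibition of growth.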

Assays:
Test in all cases: NCI tumour cell line growth inhibition, 48 h
[1] = system: 786-0 renal
[2] = system: A498 renal
[3] = system: A549 NSCLC
[4] = system: ACHN renal
[5] = system: BT-549 breast
[6] = system: CAKI-1 renal
[7] = system: CCRF-CEM leukemia
[8] = system: COLO 205 colon
[9] = system: DU-145 prostate
[10] = system: EKVX NSCLC
[11] = system: HCC-2998 colon
[12] = system: HCT-116 colon
[13] = system: HCT-15 colon
[14] = system: HL-60(TB) leukemia
[15] = system: HOP-62 NSCLC
[16] = system: HS 578T breast
[17] = system: HT29 colon
[18] = system: IGROV1 ovarian
[19] = system: K-562 leukemia
[20] = system: KM12 colon
[21] = system: LOX IMVI melanoma
[22] = system: M14 melanoma
[23] = system: MALME-3M melanoma
[24] = system: MCF7 breast
[25] = system: MDA-MB-231 breast
[26] = system: MDA-MB-435
[27] = system: MDA-N
[28] = system: MOLT-4 leukemia
[29] = system: NCI-H226 lung
[30] = system: NCI-H23 lung
[31] = system: NCI-H522 lung
[32] = system: NCI/ADR-RES ovarian
[33] = system: OVCAR-3 ovarian
[34] = system: OVCAR-4 ovarian
[35] = system: OVCAR-5 ovarian
[36] = system: OVCAR-8 ovarian
[37] = system: PC-3 prostate
[38] = system: RPMI-8226 leukemia
[39] = system: SF-268 CNS
[40] = system: SF-295 CNS
[41] = system: SF-539 CNS
[42] = system: SK-MEL-2 melanoma
[43] = system: SK-MEL-28 melanoma
[44] = system: SK-MEL-5 melanoma
[45] = system: SK-OV-3 ovarian
[46] = system: SN12C renal
[47] = system: SNB-19 CNS
[48] = system: SNB-75 CNS
[49] = system: SR leukemia
[50] = system: SW-620 colon
[51] = system: T-47D breast
[52] = system: TK-10 renal
[53] = system: U251 CNS
[54] = system: UACC-257 melanoma
[55] = system: UACC-62 melanoma
[56] = system: UO-31 renal
[57] = system: DLD-1 colon
[58] = system: DMS 114 small cell lung
[59] = system: KM20L2 colon
[60] = system: LXFL 529 NSCLC

Question: Which TGI [1] does the source give for `Nn1c(Cc2ccccc2)n[nH]c1=O` here?
Answer: The TGI was over 100 µM.

Question: And the TGI [2]?
Answer: The TGI was over 100 µM.

Question: And the TGI [3]?
Answer: Its TGI is over 100 µM.

Question: What about the TGI [4] of the same molecule?
Answer: Its TGI is over 100 µM.

Question: What about the TGI [5] of the same molecule?
Answer: Its TGI is over 100 µM.

Question: And the TGI [6]?
Answer: The TGI was over 100 µM.

Question: And the TGI [7]?
Answer: Its TGI is over 100 µM.

Question: What about the TGI [8] of the same molecule?
Answer: The TGI was over 100 µM.

Question: And the TGI [9]?
Answer: Its TGI is over 100 µM.

Question: And the TGI [10]?
Answer: Its TGI is over 100 µM.

Question: What about the TGI [11] of the same molecule?
Answer: Its TGI is over 100 µM.

Question: What about the TGI [12] of the same molecule?
Answer: Its TGI is over 100 µM.

Question: And the TGI [13]?
Answer: Its TGI is over 100 µM.

Question: What about the TGI [14] of the same molecule?
Answer: Its TGI is over 100 µM.

Question: What about the TGI [15] of the same molecule?
Answer: Its TGI is over 100 µM.

Question: What about the TGI [16] of the same molecule?
Answer: Its TGI is over 100 µM.

Question: What about the TGI [17] of the same molecule?
Answer: The TGI was over 100 µM.

Question: And the TGI [18]?
Answer: Its TGI is over 100 µM.

Question: What about the TGI [19] of the same molecule?
Answer: Its TGI is over 100 µM.

Question: What about the TGI [20] of the same molecule?
Answer: Its TGI is over 100 µM.

Question: What about the TGI [21] of the same molecule?
Answer: Its TGI is over 100 µM.

Question: And the TGI [22]?
Answer: The TGI was over 100 µM.

Question: What about the TGI [23] of the same molecule?
Answer: Its TGI is over 100 µM.

Question: What about the TGI [24] of the same molecule?
Answer: Its TGI is over 100 µM.

Question: And the TGI [25]?
Answer: Its TGI is over 100 µM.

Question: And the TGI [26]?
Answer: The TGI was over 100 µM.

Question: And the TGI [27]?
Answer: The TGI was over 100 µM.

Question: What about the TGI [28] of the same molecule?
Answer: The TGI was over 100 µM.

Question: What about the TGI [29] of the same molecule?
Answer: Its TGI is over 100 µM.

Question: What about the TGI [30] of the same molecule?
Answer: Its TGI is over 100 µM.

Question: What about the TGI [31] of the same molecule?
Answer: Its TGI is over 100 µM.

Question: What about the TGI [32] of the same molecule?
Answer: Its TGI is over 100 µM.

Question: And the TGI [33]?
Answer: Its TGI is over 100 µM.

Question: And the TGI [34]?
Answer: The TGI was over 100 µM.

Question: What about the TGI [35] of the same molecule?
Answer: The TGI was over 100 µM.

Question: And the TGI [36]?
Answer: Its TGI is over 100 µM.

Question: What about the TGI [37] of the same molecule?
Answer: Its TGI is over 100 µM.

Question: And the TGI [38]?
Answer: The TGI was over 100 µM.

Question: And the TGI [39]?
Answer: Its TGI is over 100 µM.

Question: What about the TGI [40] of the same molecule?
Answer: The TGI was over 100 µM.

Question: And the TGI [41]?
Answer: Its TGI is over 100 µM.

Question: And the TGI [42]?
Answer: The TGI was over 100 µM.

Question: And the TGI [43]?
Answer: The TGI was over 100 µM.

Question: What about the TGI [44] of the same molecule?
Answer: The TGI was over 100 µM.

Question: What about the TGI [45] of the same molecule?
Answer: The TGI was over 100 µM.

Question: And the TGI [46]?
Answer: Its TGI is over 100 µM.

Question: And the TGI [47]?
Answer: The TGI was over 100 µM.

Question: And the TGI [48]?
Answer: The TGI was over 100 µM.

Question: And the TGI [49]?
Answer: Its TGI is over 100 µM.

Question: And the TGI [50]?
Answer: Its TGI is over 100 µM.

Question: What about the TGI [51] of the same molecule?
Answer: The TGI was over 100 µM.

Question: What about the TGI [52] of the same molecule?
Answer: Its TGI is over 100 µM.

Question: What about the TGI [53] of the same molecule?
Answer: The TGI was over 100 µM.

Question: What about the TGI [54] of the same molecule?
Answer: Its TGI is over 100 µM.

Question: What about the TGI [55] of the same molecule?
Answer: The TGI was over 100 µM.

Question: What about the TGI [56] of the same molecule?
Answer: Its TGI is over 100 µM.

Question: Which GI50 [57] does the source give for `CC1C(=O)C(C)C(c2ccccc2)N(C)C1c1ccccc1` (centres undefined) here?
Answer: Its GI50 is 26.2 µM and 85.4 µM.

Question: And the TGI [57]?
Answer: Its TGI is over 100 µM.

Question: And the GI50 [58]?
Answer: Its GI50 is 30 µM and 75.1 µM.

Question: What about the TGI [58] of the same molecule?
Answer: Its TGI is 99.7 µM and > 100 µM.

Question: What about the GI50 [12] of the same molecule?
Answer: The GI50 was 15.7 µM and 40.3 µM.

Question: And the TGI [12]?
Answer: Its TGI is 30.8 µM and > 100 µM.

Question: What about the GI50 [13] of the same molecule?
Answer: The GI50 was 23.6 µM and 61.1 µM.

Question: What about the TGI [13] of the same molecule?
Answer: The TGI was 81.8 µM and > 100 µM.

Question: What about the TGI [14] of the same molecule?
Answer: Its TGI is 45.5 µM and > 100 µM.

Question: And the TGI [17]?
Answer: The TGI was 91.4 µM and > 100 µM.

Question: And the GI50 [19]?
Answer: Its GI50 is 33.2 µM and 73.4 µM.

Question: What about the TGI [19] of the same molecule?
Answer: The TGI was over 100 µM.

Question: What about the GI50 [20] of the same molecule?
Answer: Its GI50 is 23.7 µM and 90.3 µM.

Question: And the TGI [20]?
Answer: Its TGI is 67.7 µM and > 100 µM.

Question: What about the GI50 [59] of the same molecule?
Answer: The GI50 was 32.8 µM and 85.8 µM.

Question: And the TGI [59]?
Answer: Its TGI is over 100 µM.

Question: And the GI50 [21]?
Answer: The GI50 was 15.8 µM and 86.2 µM.

Question: And the TGI [21]?
Answer: The TGI was 31.4 µM and > 100 µM.

Question: What about the GI50 [60] of the same molecule?
Answer: Its GI50 is 42.6 µM and 97.9 µM.

Question: And the TGI [60]?
Answer: The TGI was over 100 µM.

Question: What about the TGI [28] of the same molecule?
Answer: Its TGI is 57.7 µM and > 100 µM.

Question: And the GI50 [31]?
Answer: The GI50 was 21.6 µM and 63 µM.

Question: What about the TGI [31] of the same molecule?
Answer: The TGI was 52.5 µM and > 100 µM.

Question: And the TGI [35]?
Answer: The TGI was over 100 µM.

Question: And the TGI [38]?
Answer: Its TGI is 54.3 µM.

Question: What about the GI50 [40] of the same molecule?
Answer: The GI50 was 28 µM and 87.4 µM.

Question: And the TGI [40]?
Answer: Its TGI is 93.9 µM and > 100 µM.

Question: What about the TGI [49] of the same molecule?
Answer: The TGI was 48.2 µM and > 100 µM.
